Results taken from ChEMBL document CHEMBL1201862, “PubChem BioAssay data set” (2004).
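The compound was tested at five concentrations on cells cultured in 96-well plates, with a 48-hour exposure period. Abbreviation: GI50, concentration required for 50% inhibition of growth.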 Active and inactive are the calls of the source. Cut-off read from the data, not from the text of the source: active = GI50 up to about 1.1 µM and inactive = higher.

Columns and labels:
Assay in all cases: inhibition of tumour cell growth, NCI panel, 48 h
MDA-MB-231 = tested on: MDA-MB-231
NCI-H226 = tested on: NCI-H226
UACC-62 = tested on: UACC-62
NCI-H522 = tested on: NCI-H522
MOLT-4 = tested on: MOLT-4
ACHN = tested on: ACHN
MDA-MB-435 = tested on: MDA-MB-435
T47D = tested on: T47D
A549 = tested on: A549
LOX IMVI = tested on: LOX IMVI
MCF7 = tested on: MCF7
COLO 205 = tested on: COLO 205
NCI/ADR-RES = tested on: NCI/ADR-RES
Hs-578T = tested on: Hs-578T
RXF 393 = tested on: RXF 393
OVCAR-8 = tested on: OVCAR-8
U-251 = tested on: U-251
UO-31 = tested on: UO-31
HCT-116 = tested on: HCT-116
M14 = tested on: M14

Row | Compound | GI50 (MDA-MB-231) | GI50 (NCI-H226) | GI50 (UACC-62) | GI50 (NCI-H522) | GI50 (MOLT-4) | GI50 (ACHN) | GI50 (MDA-MB-435) | GI50 (T47D) | GI50 (A549) | GI50 (LOX IMVI) | GI50 (MCF7) | GI50 (COLO 205) | GI50 (NCI/ADR-RES) | GI50 (Hs-578T) | GI50 (RXF 393) | GI50 (OVCAR-8) | GI50 (U-251) | GI50 (UO-31) | GI50 (HCT-116) | GI50 (M14)
1 | Cc1cc(O)c(C(C)C)cc1CN1CCCCC1 | > 100 µM (inactive) | > 100 µM (inactive) | > 100 µM (inactive) | > 100 µM (inactive) | > 100 µM (inactive) | > 100 µM (inactive) | > 100 µM (inactive) | > 100 µM (inactive) | > 100 µM (inactive) | > 100 µM (inactive) | > 100 µM (inactive) | > 100 µM (inactive) | > 100 µM (inactive) | > 100 µM (inactive) | > 100 µM (inactive) | > 100 µM (inactive) | > 100 µM (inactive) | > 100 µM (inactive) | > 100 µM (inactive) | > 100 µM (inactive)
2 | CC(=O)CC1(C)OC(N)=C(C#N)C1(C#N)C#N (configuration not stated) | > 100 µM (inactive) | > 100 µM (inactive) | > 100 µM (inactive) | 48.9 µM (inactive) | – | > 100 µM (inactive) | > 100 µM (inactive) | > 100 µM (inactive) | > 100 µM (inactive) | 81.1 µM (inactive) | > 100 µM (inactive) | 45.9 µM (inactive) | > 100 µM (inactive) | > 100 µM (inactive) | > 100 µM (inactive) | > 100 µM (inactive) | > 100 µM (inactive) | > 100 µM (inactive) | 71.6 µM (inactive) | > 100 µM (inactive)
3 | COC1C(C)OC(OC2CC(C)(O)Cc3cc4c(c(O)c32)C(=O)c2c(O)cc3c(c2C4=O)OC2OC3(C)C(O)C(N(C)C)C2O)C(OC)C1(C)OC (configuration not stated) | 0.00129 µM (active) | 0.0508 µM (active) | 0.016 µM (active) | 0.00447 µM (active) | 0.00469 µM (active) | – | 0.00102 µM (active) | 2.9e-05 µM (active) | 0.00498 µM (active) | 0.00316 µM (active) | 0.0331 µM (active) | 0.0179 µM (active) | 2.21 µM (inactive) | 5.79e-05 µM (active) | 0.00463 µM (active) | 0.00496 µM (active) | 0.00285 µM (active) | 0.411 µM (active) | 0.015 µM (active) | 0.00479 µM (active)
4 | C/C=C/c1cc2c(cc1O)CC[C@@H]1[C@@H]2CC[C@]2(C)[C@@H](O)CC[C@@H]12 | 0.317 µM (active) | 0.226 µM (active) | 0.0246 µM (active) | < 0.0142 µM (active) | 0.0409 µM (active) | 0.0594 µM (active) | 0.0102 µM (active) | 14.8 µM (inactive) | 0.0536 µM (active) | 0.0357 µM (active) | 0.171 µM (active) | 11.7 µM (inactive) | 0.0246 µM (active) | 0.0653 µM (active) | 0.1 µM (active) | 0.182 µM (active) | 0.0315 µM (active) | 0.372 µM (active) | 0.022 µM (active) | 0.041 µM (active)
5 | CN(C)CCSCCO | > 100 µM (inactive) | > 100 µM (inactive) | > 100 µM (inactive) | > 100 µM (inactive) | – | > 100 µM (inactive) | > 100 µM (inactive) | > 100 µM (inactive) | > 100 µM (inactive) | > 100 µM (inactive) | > 100 µM (inactive) | > 100 µM (inactive) | > 100 µM (inactive) | > 100 µM (inactive) | > 100 µM (inactive) | > 100 µM (inactive) | > 100 µM (inactive) | > 100 µM (inactive) | > 100 µM (inactive) | > 100 µM (inactive)
6 | S=C1c2ccccc2N=C(NC2CCCC2)C2CSCN12 (configuration not stated) | > 100 µM (inactive) | 88.5 µM (inactive) | 43.5 µM (inactive) | 37.5 µM (inactive) | 26.3 µM (inactive) | > 100 µM (inactive) | 76 µM (inactive) | 48.3 µM (inactive) | > 100 µM (inactive) | 75.2 µM (inactive) | 67.6 µM (inactive) | > 100 µM (inactive) | > 100 µM (inactive) | 44.4 µM (inactive) | 91.6 µM (inactive) | > 100 µM (inactive) | 95.5 µM (inactive) | 65.2 µM (inactive) | 80.7 µM (inactive) | 91.8 µM (inactive)
7 | COc1ccc(S(=O)(=O)Nc2ccc(-c3csc(N4C(=O)/C(=C/c5ccccc5[N+](=O)[O-])N=C4c4ccccc4)n3)cc2)cc1Cl | 20.3 µM (inactive) | > 100 µM (inactive) | 34.3 µM (inactive) | 35.9 µM (inactive) | 29.9 µM (inactive) | 50.5 µM (inactive) | > 100 µM (inactive) | 24.5 µM (inactive) | 33 µM (inactive) | 34.8 µM (inactive) | 66.8 µM (inactive) | 65.8 µM (inactive) | 86.1 µM (inactive) | 40.4 µM (inactive) | 50.8 µM (inactive) | 35.3 µM (inactive) | 37.2 µM (inactive) | 32.3 µM (inactive) | 38.8 µM (inactive) | 24.4 µM (inactive)
8 | Cc1cc2nc3c(C#N)c(C)c(CCCl)c(Cl)n3c2cc1C | 2 µM (inactive) | 0.166 µM (active) | 1.93 µM (inactive) | 12 µM (inactive) | 2.08 µM (inactive) | 5.3 µM (inactive) | 2.07 µM (inactive) | 3.13 µM (inactive) | 7.19 µM (inactive) | 1.46 µM (inactive) | 2.9 µM (inactive) | 3.69 µM (inactive) | 3.18 µM (inactive) | 3.23 µM (inactive) | 1.81 µM (inactive) | 2.63 µM (inactive) | > 43.5 µM (inactive) | 2.02 µM (inactive) | 1.57 µM (inactive) | 2.27 µM (inactive)
9 | CN1CCc2cc(N)cc3c2C1Cc1ccc2c(c1-3)OCO2 (configuration not stated) | 49.2 µM (inactive) | 34 µM (inactive) | 22.8 µM (inactive) | 18.1 µM (inactive) | 1.46 µM (inactive) | 26.3 µM (inactive) | 9.59 µM (inactive) | 36.1 µM (inactive) | 37.2 µM (inactive) | 17.7 µM (inactive) | 29.4 µM (inactive) | 30.1 µM (inactive) | 24.3 µM (inactive) | 28.2 µM (inactive) | 27.4 µM (inactive) | 21.6 µM (inactive) | 36.8 µM (inactive) | 35.2 µM (inactive) | 27.7 µM (inactive) | 30.8 µM (inactive)
10 | Cc1cc(N(CCC#N)CCC#N)ccc1C(=N/NC(=O)c1cc(Cl)ccc1O)/N=N/c1cccc(Cl)c1 | 15.7 µM (inactive) | 18.8 µM (inactive) | 10.6 µM (inactive) | 13.5 µM (inactive) | 4.81 µM (inactive) | 13 µM (inactive) | 27.3 µM (inactive) | 15.4 µM (inactive) | 17.1 µM (inactive) | 11.4 µM (inactive) | 8.79 µM (inactive) | 5.96 µM (inactive) | 16.3 µM (inactive) | 39.1 µM (inactive) | 10.7 µM (inactive) | 12.1 µM (inactive) | 25.2 µM (inactive) | 18.9 µM (inactive) | 12.2 µM (inactive) | 15.5 µM (inactive)
11 | CCCCCC(/C=C/[C@@H]1[C@@H](C(O)CCCCCC(=O)OC)C(=O)C[C@H]1O[Si](C)(C)C(C)(C)C)OCOCCOC (some centres not stated) | 21.7 µM (inactive) | 18.2 µM (inactive) | 13.1 µM (inactive) | 3.92 µM (inactive) | 1.73 µM (inactive) | 15.3 µM (inactive) | 8 µM (inactive) | 21.4 µM (inactive) | 24.6 µM (inactive) | 3.54 µM (inactive) | 4.76 µM (inactive) | 18.9 µM (inactive) | 18.9 µM (inactive) | 9.84 µM (inactive) | 18.6 µM (inactive) | 16.5 µM (inactive) | 7.26 µM (inactive) | 15.6 µM (inactive) | 4.37 µM (inactive) | 13.8 µM (inactive)
12 | CC(=O)C1=C(C)N(c2ccc(C)cc2)C2(O)C=CC(O)=C3C(=O)c4ccccc4C(=O)C312 (configuration not stated) | 20.7 µM (inactive) | 22.8 µM (inactive) | 10.5 µM (inactive) | 13.7 µM (inactive) | 3.05 µM (inactive) | 11.8 µM (inactive) | 2.33 µM (inactive) | 9.95 µM (inactive) | 18.6 µM (inactive) | 6.95 µM (inactive) | 7.71 µM (inactive) | 5.05 µM (inactive) | 3.78 µM (inactive) | 24.2 µM (inactive) | 9.04 µM (inactive) | 16.1 µM (inactive) | 18.5 µM (inactive) | 14.1 µM (inactive) | 5.52 µM (inactive) | 18.6 µM (inactive)
13 | COc1cc(CN2CCCCC2)cc2cc(C(=O)O)c(=O)oc12 | > 100 µM (inactive) | > 100 µM (inactive) | > 100 µM (inactive) | > 100 µM (inactive) | > 100 µM (inactive) | > 100 µM (inactive) | > 100 µM (inactive) | > 70.1 µM (inactive) | > 100 µM (inactive) | > 100 µM (inactive) | > 100 µM (inactive) | > 100 µM (inactive) | > 100 µM (inactive) | > 100 µM (inactive) | > 100 µM (inactive) | > 100 µM (inactive) | > 100 µM (inactive) | > 100 µM (inactive) | > 100 µM (inactive) | > 100 µM (inactive)
14 | Nc1ncn(C2OC(COP(=O)(O)O)C(O)C2O)c(=O)n1 (configuration not stated) | > 100 µM (inactive) | > 100 µM (inactive) | > 100 µM (inactive) | > 87.9 µM (inactive) | 2.39 µM (inactive) | 54.6 µM (inactive) | > 53.2 µM (inactive) | > 100 µM (inactive) | 45.9 µM (inactive) | > 100 µM (inactive) | > 71 µM (inactive) | > 100 µM (inactive) | > 100 µM (inactive) | > 100 µM (inactive) | > 100 µM (inactive) | 40.7 µM (inactive) | > 100 µM (inactive) | > 91.2 µM (inactive) | 75.9 µM (inactive) | > 100 µM (inactive)
